Consider five molecules from patent publication US4321265A, “7α-Methoxycephalosporins” (Toyama Chemical Co., Ltd., priority 1977, dated 1982).

pIC50: −log10 of the molar value. Values after ≈ are worked out from the molar mass of the structure shown. Where two headings read alike, the source gives them in different places.

Data set [1] deals with Penicillinase (P. aeruginosa GN-3379). Briefly: Stability to β-lactamase, iodometry (Perret). It is filed as biochemical. The following applies: P. aeruginosa GN-3379 penicillinase; PCG = 100; 30° C., pH 7.0. Here is the method:
(§1) The stability to β-lactamase was examined by iodometry at 30° C. by the method of Perret (Perret, C. J., "Iodometric assay of penicillinase", Nature, 174, 1012-1013 (1954)), except that a 0.1 M phosphate buffer solution (pH 7.0) was used in place of the 0.2 M phosphate buffer solution (pH 6.5). The stability of each compound was shown in Table 2 in terms of relative degree of hydrolysis, assuming the stability of Cephaloridin (CER) to cephalosporinase as 100 and the stability of Penicillin G (PCG) to penicillinase as 100.

Data set [2] has as its system Penicillinase (K. pneumoniae Y-4). Briefly: Stability to β-lactamase, iodometry (Perret). It is filed as biochemical. The following applies: K. pneumoniae Y-4 penicillinase; PCG = 100; 30° C., pH 7.0. Here is the method: as §1
In data set [3] the target is T1, Cephalosporinase (S. marcescens W-8) (Serratia marcescens, UniProt P18539).
T1 construct: native preparation, details not in excerpts
Briefly: Stability to β-lactamase, iodometry (Perret). It is filed as biochemical. The conditions noted are these: S. marcescens W-8 cephalosporinase; CER = 100; 30° C., pH 7.0. Here is the method: as §1

The subject of data set [4] is Penicillinase (E. coli TK-3). Description: Stability to β-lactamase, iodometry (Perret). The conditions noted are these: E. coli TK-3 penicillinase; PCG = 100; 30° C., pH 7.0. Type of data set: biochemical. Here is the method: as §1
The target in data set [5] is T2, Cephalosporinase (E. coli GN-5482) (Escherichia coli, UniProt P00811).
T2 construct: native preparation, details not in excerpts
Description: Stability to β-lactamase, iodometry (Perret). It is filed as biochemical. The following applies: E. coli GN-5482 cephalosporinase; CER = 100; 30° C., pH 7.0. Here is the method:
as §1

A further data set concerns S. marcescens W-35. Briefly: Infection-protective activity in mice. It is filed as in vivo, ICR-strain mice (male). The following applies: subcutaneous, one hour after intraperitoneal inoculation; challenge dose 2.5 × 10^5 cells/mouse; ICR mice. The source says:
Four-week old ICR-strain mice (male) in groups, each group consisting of five mice, were inoculated intraperitoneally with a prescribed quantity of a pathogenic bacterium suspended in 5% mucin. After one hour from the inoculation, the mice were subcutaneously administered with the test preparation to determine the infection-protective activity. The figures in Table 4 represent the protective activity in terms of ED50.

The subject of the next data set is Ser. marcescens W-35. Description: Minimum inhibitory concentration (MIC), Heart Infusion agar. Type of data set: cell-based. The conditions noted are these: Serratia marcescens, W35, 20 h. Here is the method:
(§2) Antibacterial activities of the representative compounds (Ib) of the 7α-methoxycephalosporins according to this invention are shown in Table 1. [drawing 20]
The figures given in Table 1 represent the minimum inhibitory concentration (MIC in mcg/ml) of each compound, which was determined according to the method described in "Chemotherapy (Society of Chemotherapy, Japan), Vol. 16, 98-99 (1968)": A culture obtained by cultivating the test bacterium in a Heart Infusion broth (Eiken Kagaku Co.) was inoculated into a Heart Infusion agar medium (Eiken Kagaku Co.). After 20 hours of the incubation at 37° C., the growth of the bacterium was inspected to determine the minimum inhibitory concentration (MIC in mcg/ml). […]
(§3) (1) Minimum inhibitory concentration (MIC in mcg/ml).

A further data set has as its system Ser. marcescens W-8. The data set is described as above. Type of data set: cell-based. The following applies: Serratia marcescens, W8, 20 h, read-out: minimum inhibitory concentration (MIC). Here is the method:
as §2
(§4) The figures given in Table 1 represent the minimum inhibitory concentration (MIC in mcg/ml) of each compound, which was determined according to the method described in "Chemotherapy (Society of Chemotherapy, Japan), Vol. 16, 98-99 (1968)": A culture obtained by cultivating the test bacterium in a Heart Infusion broth (Eiken Kagaku Co.) was inoculated into a Heart Infusion agar medium (Eiken Kagaku Co.). After 20 hours of the incubation at 37° C., the growth of the bacterium was inspected to determine the minimum inhibitory concentration (MIC in mcg/ml). The inoculation rate of the bacterium was 10^4 cells/plate (10^6 cells/ml).
as §3

In a further data set the test system is Ent. cloacae IID977. The data set is described as above. It is filed as cell-based. The conditions noted are these: Enterobacter cloacae, IID977, 20 h, read-out: minimum inhibitory concentration (MIC). Here is the method:
as §2, §4, §3

Data set [6] relates to Acinetobacter caloaceticus A-6. The description is as above. Type of data set: cell-based. The conditions noted are these: Acinetobacter, A6, 20 h, read-out: minimum inhibitory concentration (MIC). Here is the method:
as §2, §4, §3

A further data set has as its system E. coli NIHJ. The description is as above. Type of data set: cell-based. The following applies: Escherichia coli, 20 h, read-out: minimum inhibitory concentration (MIC). Here is the method:
as §2, §4, §3

The test system of a further data set is Ser. marcescens IID620. The data set is described as above. Type of data set: cell-based. The following applies: Serratia marcescens, IID620, 20 h, read-out: minimum inhibitory concentration (MIC). Here is the method:
as §2, §4, §3

Data set [7] has as its system C. freundii GN-346 (Cephalosporinase-producing bacterium). The data set is described as above. The following applies: Citrobacter freundii, GN346, 20 h, read-out: minimum inhibitory concentration (MIC). Type of data set: cell-based. Here is the method:
as §2, §4, §3

Another data set has as its system Ps. aeruginosa IFO-3445. The data set is described as above. Type of data set: cell-based. The following applies: Pseudomonas aeruginosa, IFO3445, 20 h, read-out: minimum inhibitory concentration (MIC). Here is the method: as §2, §4, §3
Data set [8] concerns S. aureus F-19 (Penicillinase-producing bacterium). Described as above. Type of data set: cell-based. The conditions noted are these: Staphylococcus aureus, 20 h, read-out: minimum inhibitory concentration (MIC). Here is the method: as §2, §4, §3
In the next data set the test system is Ps. aeruginosa S-68. The description is as above. The following applies: Pseudomonas aeruginosa, S68, 20 h, read-out: minimum inhibitory concentration (MIC). It is filed as cell-based. Here is the method:
as §2, §4, §3

A further data set relates to Klebsiella spp. Y-72. The description is as above. It is filed as cell-based. The conditions noted are these: Klebsiella, SPP.Y72, 20 h, read-out: minimum inhibitory concentration (MIC). Here is the method: as §2, §4, §3
The subject of the next data set is Citrobacter N-7. The description is as above. It is filed as cell-based. The following applies: Citrobacter, N7, 20 h, read-out: minimum inhibitory concentration (MIC). Here is the method:
as §2, §4, §3

A further data set concerns K. pneumoniae Y-50. The description is as above. It is filed as cell-based. The following applies: Klebsiella pneumoniae, Y50, 20 h, read-out: minimum inhibitory concentration (MIC). Here is the method:
as §2, §4, §3

A further data set relates to Prot. vulgaris GN-76. Described as above. Type of data set: cell-based. The following applies: Proteus vulgaris, GN76, 20 h, read-out: minimum inhibitory concentration (MIC). Here is the method: as §2, §4, §3
For data set [9], the target named is T3, β-lactamase (cephalosporinase, S. marcescens W-8) (Serratia marcescens, UniProt P18539).
T3 construct: producing bacteria; endogenous in cells; host or cells: S. marcescens W-8
Briefly: Inhibitory dose to β-lactamase, iodometric method of Perret, Cefazolin as substrate. It is filed as biochemical. The following applies: read-out: Inhibitory dose to β-lactamase (ID50) (converted).

The nature of a further data set: Toxicity (LD50). The conditions noted are these: mouse, in vivo; ICR-strain mice; intravenous. An excerpt:
The 7α-methoxycephalosporins of this invention are low-toxic.

Data set [10] addresses T4, β-lactamase (cephalosporinase, C. freundii GN-346) (Citrobacter freundii, UniProt P05193).
T4 construct: producing bacteria; endogenous in cells; host or cells: C. freundii GN-346
Briefly: Inhibitory dose to β-lactamase, iodometric method of Perret, Cefazolin as substrate. Type of data set: biochemical. The following applies: read-out: Inhibitory dose to β-lactamase (ID50) (converted).

Data set [11] has as its target T5, β-lactamase (cephalosporinase, E. coli GN-5482) (Escherichia coli, UniProt P00811).
T5 construct: producing bacteria; endogenous in cells; host or cells: E. coli GN-5482
Described as above. Type of data set: biochemical.

T2 sequence (P00811 20-377): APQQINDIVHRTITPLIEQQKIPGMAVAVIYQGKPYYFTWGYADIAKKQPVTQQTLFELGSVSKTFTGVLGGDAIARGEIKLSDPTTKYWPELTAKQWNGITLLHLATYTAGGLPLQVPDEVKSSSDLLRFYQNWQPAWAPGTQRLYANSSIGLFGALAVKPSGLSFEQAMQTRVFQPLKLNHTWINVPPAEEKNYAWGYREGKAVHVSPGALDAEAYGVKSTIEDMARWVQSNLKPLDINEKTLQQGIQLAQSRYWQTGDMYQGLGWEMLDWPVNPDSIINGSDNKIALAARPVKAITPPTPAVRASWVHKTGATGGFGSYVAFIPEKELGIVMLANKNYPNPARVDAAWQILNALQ
T1 sequence (P18539 22-376): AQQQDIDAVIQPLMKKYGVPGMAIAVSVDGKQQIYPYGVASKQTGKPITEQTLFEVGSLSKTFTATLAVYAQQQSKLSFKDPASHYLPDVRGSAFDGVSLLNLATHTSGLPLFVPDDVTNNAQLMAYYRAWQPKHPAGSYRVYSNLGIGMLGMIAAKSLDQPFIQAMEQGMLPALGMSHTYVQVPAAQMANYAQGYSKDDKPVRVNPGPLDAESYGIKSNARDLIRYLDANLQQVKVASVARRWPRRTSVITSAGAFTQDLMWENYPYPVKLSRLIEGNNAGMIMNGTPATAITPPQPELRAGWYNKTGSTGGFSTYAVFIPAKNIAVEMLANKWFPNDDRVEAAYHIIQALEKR
T5 sequence (P00811 20-377): as the sequence (P00811 20-377) above
T4 sequence (P05193 21-381): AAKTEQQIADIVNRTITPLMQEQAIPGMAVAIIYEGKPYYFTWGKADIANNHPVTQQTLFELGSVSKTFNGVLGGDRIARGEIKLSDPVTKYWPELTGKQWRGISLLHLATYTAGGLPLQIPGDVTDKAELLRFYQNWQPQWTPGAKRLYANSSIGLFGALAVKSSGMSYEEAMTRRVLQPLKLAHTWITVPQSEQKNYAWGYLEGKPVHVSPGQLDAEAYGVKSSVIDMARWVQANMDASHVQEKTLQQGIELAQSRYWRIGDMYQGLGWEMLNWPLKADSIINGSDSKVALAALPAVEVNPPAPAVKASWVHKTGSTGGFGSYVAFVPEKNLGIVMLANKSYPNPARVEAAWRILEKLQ
T3 sequence (P18539 22-376): as the sequence (P18539 22-376) above

Regarding `O=C(Cc1cccs1)N[C@@H]1C(=O)N2C(C(=O)[O-])=C(C[n+]3ccccc3)CS[C@H]12` [CER, Cephaloridin], the “Stability to β-lactamase, relative degree of hydrolysis” value in data set [1] is 18; in data set [2], 41; in [3] it was 100; in data set [4], 115; in [5] it was 100.

Turning to `Cc1nnc(SCC2=C(C(=O)O)N3C(=O)[C@@H](NC(=O)Cn4cnnn4)[C@H]3SC2)s1` [CEZ, Cefazolin], the “Stability to β-lactamase, relative degree of hydrolysis” value in [1] came to 2; in data set [2], 4; in [3], 94; in [4], 21; in data set [5], 130.

Regarding `CO[C@@]1(NC(=O)CSCC#N)C(=O)N2C(C(=O)O)=C(CSc3nnnn3C)CS[C@@H]21` [CS-1170, reference compound], the “ED50 (infection-protective activity)” value in the data set with S. marcescens W-35 was determined as 15.1 mg/mouse. In addition, the MIC against Ser. marcescens W-35 (S. marcescens W-35, inoculated bacteria quantity 10^6 cells/ml (Table 4)) was 100 µg/mL (≈ 212 µM); in the data set on Ser. marcescens W-35 (S. marcescens W-35, inoculated bacteria quantity 10^8 cells/ml (Table 4)) it was 200 µg/mL (≈ 424 µM); in the data set on Ser. marcescens W-35 (read-out: minimum inhibitory concentration (MIC), Ser. marcescens W-35, 10^6 cells/ml, 20 hours, 37° C. (Table 1)), 100 µg/mL (≈ 212 µM); with Ser. marcescens W-8, at least 200 µg/mL; with Ent. cloacae IID977 it was at least 200 µg/mL; in data set [6], 50 µg/mL (≈ 106 µM). Also, the MIC is 0.39 µg/mL (≈ 0.827 µM) in the data set on E. coli NIHJ; 3.13 µg/mL (≈ 6.64 µM) in the data set with Ser. marcescens IID620; at least 200 µg/mL in data set [7]; at least 200 µg/mL with Ps. aeruginosa IFO-3445; 1.56 µg/mL (≈ 3.31 µM) in [8]; at least 200 µg/mL with Ps. aeruginosa S-68. Further, the MIC in the data set with Klebsiella spp. Y-72 turned out to be 12.5 µg/mL (≈ 26.5 µM); in the data set on Citrobacter N-7, 25 µg/mL (≈ 53 µM); in the data set on K. pneumoniae Y-50 it was 0.39 µg/mL (≈ 0.827 µM); in the data set with Prot. vulgaris GN-76 it was 3.13 µg/mL (≈ 6.64 µM).

Consider `CCN1CCN(C(=O)NC(C(=O)N[C@]2(OC)C(=O)N3C(C(=O)O)=C(CSc4nnnn4C)CS[C@@H]32)c2cccs2)C(=O)C1=O` (some centres unmarked) [Example T-1414], for which the IC50 in data set [9] was 811 nM; in [10] it was 2550 nM. For the same molecule, the “ED50 (infection-protective activity)” value in the data set with S. marcescens W-35 was found to be 0.84 mg/mouse. In addition, the “Stability to β-lactamase, relative degree of hydrolysis” value in data set [1] was 0.03; in [2] it was under 0.09; in data set [3], 0.02; in data set [4], under 0.003; in data set [5], under 0.1. For the same molecule, the median lethal dose (LD50) in the data set “Toxicity (LD50)” was at least 5000 mg/kg. Also, the MIC in the data set on Ser. marcescens W-35 (S. marcescens W-35, inoculated bacteria quantity 10^6 cells/ml (Table 4), read-out: MIC) was found to be 6.25 µg/mL (≈ 9.39 µM); in the data set on Ser. marcescens W-35 (S. marcescens W-35, inoculated bacteria quantity 10^8 cells/ml (Table 4), read-out: MIC), 12.5 µg/mL (≈ 18.8 µM). Moreover, the pIC50 in data set [11] is 5.91.

With `CC1(C)S[C@@H]2[C@H](NC(=O)Cc3ccccc3)C(=O)N2[C@H]1C(=O)O` [PC-G, Penicillin G], the “Stability to β-lactamase, relative degree of hydrolysis” value came out at 100 in data set [1]; 100 in data set [2]; 21 in data set [3]; 100 in data set [4]; 22 in data set [5].
